Results taken from the NIST ThermoML archive (doi:10.1016/j.tca.2013.03.018).

Details: Liquid, DSC

CCCCCCCCO [octan-1-ol]
Details | vapor or sublimation pressure [kPa]
333.69 K | 0.2242
333.97 K | 0.2242
334.46 K | 0.2376
341.76 K | 0.3855
342.1 K | 0.3855
343.33 K | 0.372
344.5 K | 0.3855
348.2 K | 0.5736
348.72 K | 0.587
349.1 K | 0.6004
349.38 K | 0.587
352.09 K | 0.7483
352.98 K | 0.802
353.96 K | 0.8087
354.96 K | 0.7886
357.9 K | 1.071
357.94 K | 1.057
357.99 K | 1.057
358.41 K | 1.071
362.88 K | 1.434
363.3 K | 1.447
363.51 K | 1.46
364.35 K | 1.474
369.69 K | 2.105
369.76 K | 2.092
369.9 K | 2.132
370 K | 2.132
379.04 K | 3.436
379.35 K | 3.489
379.45 K | 3.489
379.49 K | 3.489
387.2 K | 5.169
387.28 K | 5.156
387.87 K | 5.182
387.92 K | 5.169
407.24 K | 13.57
408.44 K | 13.58
408.9 K | 13.55
409.3 K | 13.55
435.48 K | 40.47
438.31 K | 40.53
438.58 K | 40.53
438.8 K | 40.53
468.15 K | 101.4
468.47 K | 101.4
